According to ChEMBL document CHEMBL3046753, “Isocoumarin Derivative as a Novel GABA Receptor Ligand from Neosartorya quadricincta” (J Pestic Sci, 2004):

What was measured:
[1] = Inhibition of GABA receptor-induced currents in Rattus norvegicus (rat) dorsal ganglion neuron
[2] = Displacement of [3H]EBOB from GABA receptor in Rattus norvegicus (rat) membrane after 70 min by liquid scintillation counting; format: cell membranes
GABA receptor subunit = molecular target: T1, GABA receptor subunit (Musca domestica, UniProt Q75NA5); assay: Displacement of [3H]EBOB from GABA receptor in Musca domestica (house fly) head P2 membrane after 70 min by liquid scintillation counting
T1 sequence (Q75NA5 whole entry): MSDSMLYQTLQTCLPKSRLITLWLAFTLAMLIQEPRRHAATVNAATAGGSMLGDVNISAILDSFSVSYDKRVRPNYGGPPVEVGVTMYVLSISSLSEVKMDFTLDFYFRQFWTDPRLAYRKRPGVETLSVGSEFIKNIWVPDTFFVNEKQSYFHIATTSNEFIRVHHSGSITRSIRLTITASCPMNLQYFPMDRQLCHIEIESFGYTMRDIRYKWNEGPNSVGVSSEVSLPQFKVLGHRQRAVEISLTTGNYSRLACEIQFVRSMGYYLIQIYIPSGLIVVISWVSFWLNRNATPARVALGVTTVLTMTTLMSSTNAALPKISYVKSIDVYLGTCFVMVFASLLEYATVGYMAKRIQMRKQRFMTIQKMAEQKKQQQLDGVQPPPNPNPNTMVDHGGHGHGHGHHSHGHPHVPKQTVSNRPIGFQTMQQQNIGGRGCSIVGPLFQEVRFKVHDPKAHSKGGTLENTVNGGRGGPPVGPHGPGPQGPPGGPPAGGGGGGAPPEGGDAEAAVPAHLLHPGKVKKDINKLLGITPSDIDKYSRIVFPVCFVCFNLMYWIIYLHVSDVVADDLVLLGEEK

[3] = molecular target: T2, GABA receptor subunit (Musca domestica) (UniProt Q75NA5); assay: Displacement of [3H]EBOB from GABA receptor in Musca domestica (house fly) head P2 membrane at 2.2 uM after 70 min by liquid scintillation counting
T2 sequence (whole entry): T1 sequence (Q75NA5 whole entry)

IC50 [1] [nM]	IC50 [2] [nM]	IC50 (GABA receptor subunit) [nM]	inhibition [3] [%]	SMILES
540	3410	88		CC(C)(C)CCOC(=O)c1ccc(C#CCCC(=O)O)cc1
	3410	88	65	COc1cc(O)c2c(c1C)C(C)C(O)(COC(=O)c1ccc(O)c(CC=C(C)C)c1)OC2=O (stereo unspecified) [DIHYDROISOCOUMARIN]
